According to ChEMBL document CHEMBL3739401, “Synthesis, in vitro, and in vivo evaluation of novel functionalized quaternary ammonium curcuminoids as potential anti-cancer agents” (Bioorg Med Chem Lett, 2015):
The source made the active and inactive calls. The rule behind the calls is not given here.

Columns and labels:
[1] = Aqueous solubility of compound; assay type: physicochemical; conditions: water
[2] = test system: 4T1; assay: Cytotoxicity against mouse 4T1 cells by MTT assay; assay type: functional, cell-based
[3] = Cytotoxicity against human MIAPaCa2 cells by MTT assay; assay type: functional, cell-based; conditions: MIA PaCa-2
[4] = test system: MDA-MB-231; assay: Cytotoxicity against human MDA-MB-231 cells by MTT assay; assay type: functional, cell-based
[5] = Antitumor activity against human MIAPaCa2 cells xenografted in athymic nude mouse assessed as tumor growth inhibition at 100 mg/kg, ip twice weekly; assay type: functional; conditions: MIA PaCa-2, ip, read-out: TGI
[6] = test system: MDA-MB-231; assay: Cytotoxicity against human MDA-MB-231 cells upto 50 uM by MTT assay; assay type: functional, cell-based
[7] = test system: MDA-MB-231; assay: Cytotoxicity against human MDA-MB-231 cells at 20 to 50 uM by MTT assay; assay type: functional, cell-based
[8] = test system: Mus musculus; assay: Toxicity in CD-1 mouse assessed as effect on body weight at 50 mg/kg, ip measured after 7 days; assay type: organism-based; conditions: in vivo, 168 h
[9] = test system: Mus musculus; assay: Toxicity in CD-1 mouse assessed as sign of stress at 30 mg/kg, ip bid; assay type: organism-based; conditions: in vivo
[10] = test system: Mus musculus; assay: Toxicity in CD-1 mouse assessed as survival at 50 mg/kg, ip measured after 7 days; assay type: organism-based; conditions: in vivo, 168 h
[11] = test system: Mus musculus; assay: Toxicity in CD-1 mouse assessed as survival at 30 mg/kg, ip bid; assay type: organism-based; conditions: in vivo
[12] = Antitumor activity against human MIAPaCa2 cells xenografted in athymic nude mouse assessed as tumor growth inhibition at 40 mg/kg, ip bid; assay type: functional; conditions: MIA PaCa-2, ip, read-out: TGI
[13] = test system: Mus musculus; assay: Toxicity in CD-1 mouse assessed as effect on body weight at 30 mg/kg, ip bid; assay type: organism-based; conditions: in vivo
[14] = Antitumor activity against human MIAPaCa2 cells xenografted in athymic nude mouse assessed as tumor growth inhibition at 40 mg/kg, ip bid cotreated with gemcitabine (100 mg/kg, ip twice weekly; assay type: functional, MIA PaCa-2
[15] = test system: Mus musculus; assay: Toxicity in CD-1 mouse assessed as sign of stress at 50 mg/kg, ip measured after 7 days; assay type: organism-based; conditions: in vivo, 168 h

solubility [1] [µg/mL]	SMILES	IC50 [2] [µM]	IC50 [3] [µM]	IC50 [4] [µM]	also measured
1000	C=C(C[N+]1(C)CCN(c2ccc(/C=C/C(=O)/C=C(O)/C=C/c3ccc(N4CC[N+](C)(CC(=C)C(=O)OCCCC)CC4)cc3)cc2)CC1)C(=O)OCCCC.[Br-].[Br-]	4.1	4.4	3.7	–
1000	COC(=O)/C(=C\c1ccccc1)C[N+]1(C)CCN(c2ccc(/C=C/C(=O)/C=C(O)/C=C/c3ccc(N4CC[N+](C)(C/C(=C/c5ccccc5)C(=O)OC)CC4)cc3)cc2)CC1.[Br-].[Br-]	5	4.1	6.2	–
–	Nc1ccn([C@@H]2O[C@H](CO)[C@@H](O)C2(F)F)c(=O)n1 [GEMCITABINE]	–	–	–	inhibition in vivo at 100 mg/kg [5]: 47%
1000	C=C(C[N+]1(C)CCN(c2ccc(/C=C/C(=O)/C=C(O)/C=C/c3ccc(N4CC[N+](C)(CC(=C)C(=O)N(C)C)CC4)cc3)cc2)CC1)C(=O)N(C)C.[Br-].[Br-]	17.2	14.2	15.1	–
15000	C=CC[N+]1(C)CCN(c2ccc(/C=C/C(=O)/C=C(O)/C=C/c3ccc(N4CC[N+](C)(CC=C)CC4)cc3)cc2)CC1.[Br-].[Br-]	> 100	> 100	> 100	–
–	C=C(C(=O)OC)C(O)c1ccccc1 (configuration not stated)	–	–	–	Activity [6]: inactive
1000	C=C(C[N+]1(C)CCN(c2ccc(/C=C/C(=O)/C=C(O)/C=C/c3ccc(N4CC[N+](C)(CC(=C)C(=O)OCCCCCC)CC4)cc3)cc2)CC1)C(=O)OCCCCCC.[Br-].[Br-]	3.4	4.2	4.2	–
–	C=C(CBr)C(=O)OC	–	–	–	Activity [7]: Active
–	O=C(/C=C(O)/C=C/c1ccc(N2CCN(CCO)CC2)cc1)/C=C/c1ccc(N2CCN(CCO)CC2)cc1	> 100	> 100	> 100	–
> 100000	C[N+]1(Cc2ccccc2)CCOCC1	–	–	–	–
> 100000	C=CC[N+]1(C)CCOCC1	–	–	–	–
> 100000	C=C(C[N+]1(C)CCOCC1)C(=O)OC	–	–	–	–
–	COc1cc(/C=C/C(=O)CC(=O)/C=C/c2ccc(O)c(OC)c2)ccc1O [CURCUMIN]	20	20	15	–
–	COC(=O)/C(=C/c1ccccc1)CBr	–	–	–	Activity [7]: Active
–	CN1CCN(c2ccc(/C=C/C(=O)/C=C(O)/C=C/c3ccc(N4CCN(C)CC4)cc3)cc2)CC1	> 100	> 100	> 100	–
15000	C[N+]1(Cc2ccccc2)CCN(c2ccc(/C=C/C(=O)/C=C(O)/C=C/c3ccc(N4CC[N+](C)(Cc5ccccc5)CC4)cc3)cc2)CC1.[Br-].[Br-]	> 100	> 100	> 100	–

SMILES	solubility [1] [µg/mL]	IC50 [2] [µM]	IC50 [3] [µM]	IC50 [4] [µM]	also measured
C=C(C[N+]1(C)CCN(c2ccc(/C=C/C(=O)/C=C(O)/C=C/c3ccc(N4CC[N+](C)(CC(=C)C(=O)OC)CC4)cc3)cc2)CC1)C(=O)OC.[Br-].[Br-]	1000	4.1	2.7	3.6	Activity [8]: Non-toxic; Activity [9]: Non-toxic; Activity [10]: Non-toxic; Activity [11]: Non-toxic; inhibition in vivo at 40 mg/kg [12]: 42%; Activity [13]: Non-toxic; TGI [14]: 57%; Activity [15]: Non-toxic
